The structures appear in SMILES notation. Where “and” joins values, the source holds several entries; their conditions need not be identical. Equal values may be shown once.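 Test compounds were applied to cells in 96-well plates for 48 hours at 5 doses. GI50 = concentration required for 50% inhibition of growth. TGI is the concentration that stops growth completely.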

The record followed here is PubChem BioAssay (NCI).

Among the test systems are SF-539 CNS; SNB-75 CNS; SF-268 CNS; UACC-257 melanoma; SK-MEL-28 melanoma; HCC-2998 colon; HCT-15 colon; MDA-MB-435; T-47D breast.
Common to all, as to experiment: growth of human tumour cells (NCI), 48 h

For `Clc1cc(Cl)c2ns[s+]c2c1Cl`, the TGI in the test with SF-539 CNS, in the test on SNB-75 CNS, in the test on SF-268 CNS, in the test with UACC-257 melanoma and in the test with SK-MEL-28 melanoma was > 100 µM throughout.
As for `CNC(=S)/N=C(\N)N(C)C`, the TGI is > 100 µM in the test with SF-539 CNS; > 100 µM with SNB-75 CNS; > 100 µM in the test on SF-268 CNS; > 10 µM with UACC-257 melanoma; > 100 µM in the test on SK-MEL-28 melanoma; > 100 µM with HCC-2998 colon. Also, the TGI in the test on HCT-15 colon was > 100 µM.
As to `CCCCNC1CCCCC[C@H]1O` (stereo partly drawn), the TGI with SF-539 CNS, in the test with SNB-75 CNS, in the test on SF-268 CNS, in the test on UACC-257 melanoma, in the test on SK-MEL-28 melanoma and in the test with HCC-2998 colon was > 100 µM in each case.
Turning to `Nc1ccccc1C#C/C=C\C#Cc1ccccc1N`, the GI50 in the test with MDA-MB-435 is 1.43 µM; with T-47D breast, 26.9 µM; with SF-539 CNS, 10.1 µM; in the test on SNB-75 CNS, 29.4 µM; with SF-268 CNS, 10.7 µM; in the test on UACC-257 melanoma, 41.3 µM. Further, the GI50 was 28.7 µM in the test with SK-MEL-28 melanoma, 0.0333 µM in the test with HCC-2998 colon and 14.1 µM in the test with HCT-15 colon. Further, the TGI in the test with MDA-MB-435 is 4.58 µM; with T-47D breast, > 100 µM; in the test on SF-539 CNS, 26.6 µM; with SNB-75 CNS, > 100 µM; with SF-268 CNS, 37.9 µM; in the test with UACC-257 melanoma it was > 100 µM. The TGI was found to be 82 µM in the test with SK-MEL-28 melanoma, 24.4 µM with HCC-2998 colon and 33.3 µM in the test with HCT-15 colon.
With `CCOC(=O)/C(C)=C(/O)C(=O)OCC`, the TGI in the test on SF-539 CNS, with SNB-75 CNS, in the test on SF-268 CNS, in the test with UACC-257 melanoma, in the test with SK-MEL-28 melanoma and with HCC-2998 colon was > 100 µM throughout. Moreover, the TGI with HCT-15 colon is > 100 µM.
`COC(=O)[C@@]12C(=O)C=CC(=O)C1C1C(=CC2C)OC2OC3(CCCCC3)OC21` (stereo partly drawn): the TGI was 33.2 µM with SNB-75 CNS; 48.6 µM with SF-268 CNS; 31.5 µM in the test on UACC-257 melanoma; 33.6 µM in the test with SK-MEL-28 melanoma; 28.2 µM with HCC-2998 colon; 31.1 µM in the test with HCT-15 colon.
In the case of `S=c1ssc(N2CCOCC2)c1Cl`, the GI50 with MDA-MB-435 was 25 µM; in the test on T-47D breast, > 100 µM; with SF-539 CNS, 31.4 µM; in the test on SF-268 CNS it was 23.3 µM; in the test with UACC-257 melanoma, > 100 µM; in the test with SK-MEL-28 melanoma it was 38.2 µM. The GI50 with HCC-2998 colon is 30.6 µM; in the test with HCT-15 colon, 23.6 µM. Further, the TGI with MDA-MB-435 was 73.7 µM; in the test with T-47D breast, > 100 µM; in the test on SF-539 CNS, 76.3 µM; in the test on SF-268 CNS, 71 µM; with UACC-257 melanoma, > 100 µM; with SK-MEL-28 melanoma it was 57.9 µM. For the same compound, the TGI in the test on HCC-2998 colon and in the test on HCT-15 colon was > 100 µM each time.
Consider `COc1cc2[nH]c3c(c2cc1OC)CCN[C@]31CC[C@]2(CC3c4c(cc(OC)c(O)c42)CCN3C)C[C@H]1OC` (stereo partly drawn), for which the TGI came to 31.5 µM with SF-539 CNS; 45.5 µM with SNB-75 CNS; 68.2 µM in the test with SF-268 CNS; 37.1 µM in the test with UACC-257 melanoma; 36.6 µM in the test with SK-MEL-28 melanoma; 29.8 µM in the test on HCC-2998 colon. For the same compound, in the test with HCT-15 colon, the TGI was found to be 43.1 µM.
For the compound `CN(Cc1ccccc1)C(=O)c1ccccc1C(=O)O`, the TGI with SF-539 CNS, with SNB-75 CNS, in the test on SF-268 CNS, in the test with UACC-257 melanoma, with HCC-2998 colon and in the test on HCT-15 colon was > 100 µM each time.
With `c1cnn(CN(Cn2cccn2)Cn2cccn2)c1`, the TGI in the test with SF-539 CNS, with SNB-75 CNS, in the test on SF-268 CNS, in the test on UACC-257 melanoma, in the test on SK-MEL-28 melanoma and in the test on HCT-15 colon was > 100 µM throughout.
For `CCCC1=C(CC)C(C(=O)Nc2c(C)cccc2C)=NC(S)N1` (stereo not drawn), the TGI with SF-539 CNS, with SNB-75 CNS, in the test on SF-268 CNS, with UACC-257 melanoma, in the test on SK-MEL-28 melanoma and with HCT-15 colon was > 100 µM throughout.
On to `CC(=O)C1Cn2c(nc3ccccc32)C[Se]1` (stereo not drawn), for which the TGI with SF-539 CNS was found to be 4.89 µM; with SNB-75 CNS it was 8.02 µM; in the test with SF-268 CNS, 11.5 µM; with UACC-257 melanoma it was 5.38 µM; in the test on SK-MEL-28 melanoma, 8.75 µM; in the test on HCC-2998 colon, 22.9 µM. Besides, the TGI in the test with HCT-15 colon was 20.5 µM.
Take `COc1cc(Cc2nccc3cc(OC)c(OC)cc23)c(C(C)=O)cc1OC`: the TGI with T-47D breast is 25.1 µM; with SF-539 CNS, > 94.9 µM and 66.1 µM; in the test on SNB-75 CNS, 300 µM and > 750 µM; in the test with SF-268 CNS it was 419 µM; in the test with UACC-257 melanoma it was 116 µM and 144 µM; in the test with SK-MEL-28 melanoma, 42.1 µM and 331 µM. The TGI with HCC-2998 colon is 300 µM and > 750 µM; with HCT-15 colon, 300 µM and > 750 µM. For the same compound, the GI50 in the test on SF-539 CNS was 85.3 µM and 19.9 µM; in the test on SNB-75 CNS, 29.4 µM; in the test on UACC-257 melanoma it was 55 µM and 49 µM and 35.4 µM; in the test with SK-MEL-28 melanoma, 20.4 µM and 142 µM; in the test with HCT-15 colon, 195 µM and 249 µM.
Turning to `CC1=CC(C)(C)N=C2SC(c3ccc(N)cc3)=NN12`, the TGI in the test with SF-539 CNS, in the test on SNB-75 CNS, in the test with SF-268 CNS, with UACC-257 melanoma, in the test with SK-MEL-28 melanoma and in the test on HCC-2998 colon was > 100 µM throughout. In the test with HCT-15 colon, the TGI was > 58.7 µM.
On to `c1ccc(C2N3CCCCC3[C@@H]3c4[nH]c5ccccc5c4CCN23)nc1` (stereo partly drawn), for which the TGI in the test on SF-539 CNS, in the test on SNB-75 CNS, with SF-268 CNS, in the test on UACC-257 melanoma, with SK-MEL-28 melanoma and in the test on HCT-15 colon was > 100 µM throughout.
